In US20060160865A1, “Pyridinyl carbamates” (Novo Nordisk A/S, priority 2003, published 2006):

Each compound was assayed against T1, Hormone-sensitive lipase (HSL) (Homo sapiens, UniProt Q05469) (assay: Assay 3190.1: percent inhibition of hormone sensitive lipase by compound at 10 μM (fluorochrome-labeled triacylglyceride substrate)). Conditions: 10 μM sample concentration; % activity relative to non-inhibited sample (no compound); 30 min pre-incubation at 25° C., 120 min at 37° C.; read-out: Test 3190.1 HSL_FL % ACTIVITY.
T1 construct: made in house
T1 sequence (Q05469 1-775 isoform Q05469-2): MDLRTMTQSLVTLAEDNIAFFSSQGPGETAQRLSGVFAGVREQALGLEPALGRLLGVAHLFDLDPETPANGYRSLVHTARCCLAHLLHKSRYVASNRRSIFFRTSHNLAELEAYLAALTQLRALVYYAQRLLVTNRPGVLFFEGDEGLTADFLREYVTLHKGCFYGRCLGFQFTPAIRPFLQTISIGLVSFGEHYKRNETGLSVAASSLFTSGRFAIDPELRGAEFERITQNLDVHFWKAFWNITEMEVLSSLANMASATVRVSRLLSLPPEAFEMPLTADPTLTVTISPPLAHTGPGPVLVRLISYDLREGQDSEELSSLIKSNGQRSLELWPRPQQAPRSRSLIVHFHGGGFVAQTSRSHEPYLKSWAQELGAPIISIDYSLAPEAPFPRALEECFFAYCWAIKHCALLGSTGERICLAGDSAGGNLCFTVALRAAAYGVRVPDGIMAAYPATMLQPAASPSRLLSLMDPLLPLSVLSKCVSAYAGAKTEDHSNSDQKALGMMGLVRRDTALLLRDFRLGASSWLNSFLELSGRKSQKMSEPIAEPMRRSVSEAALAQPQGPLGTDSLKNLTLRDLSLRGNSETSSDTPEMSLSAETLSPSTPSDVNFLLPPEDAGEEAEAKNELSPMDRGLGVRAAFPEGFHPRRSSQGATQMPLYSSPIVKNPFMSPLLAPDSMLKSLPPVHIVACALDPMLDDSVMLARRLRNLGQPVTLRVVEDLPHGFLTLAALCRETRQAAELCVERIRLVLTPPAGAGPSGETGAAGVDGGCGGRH
Type: biochemical
Source text: Materials. The Hormone-sensitive lipase was provided by Dr. Cecilia Holm, from Lund University Sweden or produced and purified by Novo Nordisk (NN) using the reagents and protocols used by Dr. Holm. The substrates used are: ^3H-labeled triolein (TO) from Amersham, Buckinghamshire, U.K. cat No. TRA191; 5-20 Ci/mmol dissolved in toluene, triolein (Sigma, Cat. No. T-1740), fluorochrome-labeled triacylglyceride (cis-octadec-9-enoic acid 2-[12-(7-nitrobenzo[1,2,5]oxadiazol-4-ylamino)dodecanoyloxy]-1-cis-octadec-9-enoyloxymethyl-ethyl ester) prepared by Novo Nordisk (NN) by conventional methods, and 1,3-(di[^3H]-stearin), 2-(PEG-Biotin)glycerol prepared in collaboration with Amersham Pharmacia Biotech, UK and described in WO 01/073442. Phosphatidyl choline (PC) and phosphatidyl inositol (PI) are from Sigma (St Luis Mo. cat. Nos. P-3556 and P-5954 respectively). All other reagents are of commercial grade and obtained from various commercial sources.
3190.1: Assay for determination of percent inhibition of hormone sensitive lipase by compound at 10 μM sample concentration.
A lipid emulsion with fluorochrome-labeled triacylglyceride and phospholipid is used as substrate with a standard concentration of highly purified HSL (12 μg/mL initial concentration corresponding to 600 ng/mL final concentration). BSA is added as product acceptor. The transfer of the fluorochrome from the lipid phase to the water (BSA) phase changes the fluorescent properties of the fluorochrome. The changes can be monitored on a fluorimeter with an excitation wavelength of 450 nm and an emission wavelength of 545 nm.
Compound and HSL (20 μL compound, 10 μL enzyme and 70 μL PED-BSA buffer) is pre-incubated for 30 min at 25° C. before addition of substrate (100 μL). Amount of formed product is measured after 120 min incubation at 37° C.
Results are given as percent activity relative to a non-inhibited sample (no compound). 3190.2: Assay for determination of IC50 value for the inhibition of hormone sensitive lipase by compound. Standard concentrations of compound are 100 μM and 5-fold dilutions (initial concentration corresponding to 10 μM final concentration and 5-fold).

Q: Which activity at 10 µM does the source give for `CN(C(=O)Oc1ccc(CCN2C(=O)CC(C)(C)CC2=O)cn1)c1ccccc1` [Example 1, Methyl-phenyl-carbamic acid 5-[2-(4,4-dimethyl-2,6-dioxo-piperidin-1-yl)-ethyl]-pyridin-2-yl ester] here?
A: 0%

Q: `CN(C(=O)Oc1ccc(NCC(=O)OC(C)(C)C)cn1)c1ccccc1` [Example 2, [6-(Methyl-phenyl-carbamoyloxy)-pyridin-3-ylamino]-acetic acid tert-butyl ester] was tested. Which activity at 10 µM did it give?
A: 1%

Q: `CN(C(=O)Oc1ccc(N2C(=O)CNC2=S)cn1)c1ccccc1` [Example 5, Methyl-phenyl-carbamic acid 5-(5-oxo-2-thioxo-imidazolidin-1-yl)-pyridin-2-yl ester] was tested. Which activity at 10 µM did it give?
A: 9%

Q: With `CCC1NC(=S)N(c2ccc(OC(=O)N(C)c3ccccc3)nc2)C1=O` (stereo not drawn) [Example 8, Methyl-phenyl-carbamic acid 5-(4-ethyl-5-oxo-2-thioxo-imidazolidin-1-yl)-pyridin-2-yl ester] as the compound, how does the activity at 10 µM read?
A: 3%

Q: Which activity at 10 µM does the source give for `CN(C(=O)Oc1ccc(NC(=S)NCC(C)(C)C)cn1)c1ccccc1` [Example 12, Methyl-phenyl-carbamic acid 5-[3-(2,2-dimethyl-propyl)-thioureido]-pyridin-2-yl ester] here?
A: 2%

Q: `CCCCNC(=S)Nc1ccc(OC(=O)N(C)c2ccccc2)nc1` [Example 16, Methyl-phenyl-carbamic acid 5-(3-butyl-thioureido)-pyridin-2-yl ester] was tested. Which activity at 10 µM did it give?
A: 1%

Q: `COc1cccc(C(=O)Nc2ccc(OC(=O)N(C)c3ccccc3)nc2)c1` [Example 21, Methyl-phenyl-carbamic acid 5-(3-methoxy-benzoylamino)-pyridin-2-yl ester] was tested. Which activity at 10 µM did it give?
A: 1%

Q: With `CN(C(=O)Oc1ccc(NC(=O)c2cccc(C(F)(F)F)c2F)cn1)c1ccccc1` [Example 28, Methyl-phenyl-carbamic acid 5-(2-fluoro-3-trifluoromethyl-benzoylamino)-pyridin-2-yl ester] as the compound, how does the activity at 10 µM read?
A: 1%

Q: Which activity at 10 µM does the source give for `CN(C)c1cccc(C(=O)Nc2ccc(OC(=O)N(C)c3ccccc3)nc2)c1` [Example 31, Methyl-phenyl-carbamic acid 5-(3-dimethylamino-benzoylamino)-pyridin-2-yl ester] here?
A: 3%

Q: For `COc1ccccc1N(C)C(=O)Oc1ccc(N2C(=O)CC(C)(C)CC2=O)cn1` [Example 32, (2-Methoxy-phenyl)-methyl-carbamic acid 4,4-dimethyl-2,6-dioxo-3,4,5,6-tetrahydro-2H-[1,3′]bipyridinyl-6′-yl ester], which activity at 10 µM is on record?
A: 6%

Q: `CN(C(=O)Oc1ccc(NC(=O)NC(C)(C)C)cn1)c1ccccc1` [Example 35, Methyl-phenyl-carbamic acid 5-(3-tert-butyl-ureido)-pyridin-2-yl ester] was tested. Which activity at 10 µM did it give?
A: 8%

Q: `CC1CCN(Cc2ccc(C(=O)Nc3ccc(OC(=O)N(C)c4ccccc4)nc3)cc2)CC1` [Example 41, Methyl-phenyl-carbamic acid 5-[4-(4-methyl-piperidin-1-ylmethyl)-benzoylamino]-pyridin-2-yl ester] was tested. Which activity at 10 µM did it give?
A: 3%

Q: How did the activity at 10 µM turn out when `CC1CCCCN1Cc1ccc(C(=O)Nc2ccc(OC(=O)N(C)c3ccccc3)nc2)cc1` (stereo not drawn) [Example 43, Methyl-phenyl-carbamic acid 5-[4-(2-methyl-piperidin-1-ylmethyl)-benzoylamino]-pyridin-2-yl ester] was run?
A: 7%

Q: How did the activity at 10 µM turn out when `CN(C(=O)Oc1ccc(NC(=O)c2ccc(CN3CCCC3)cc2)cn1)c1ccccc1` [Example 47, Methyl-phenyl-carbamic acid 5-(4-pyrrolidin-1-ylmethyl-benzoylamino)-pyridin-2-yl ester] was run?
A: 7%

Q: With `C[C@@H]1CN(Cc2ccc(C(=O)Nc3ccc(OC(=O)N(C)c4ccccc4)nc3)cc2)C[C@H](C)O1` [Example 52, cis-Methyl-phenyl-carbamic acid 5-[4-(2,6-dimethyl-morpholin-4-ylmethyl)-benzoylamino]-pyridin-2-yl ester] as the compound, how does the activity at 10 µM read?
A: 4%

Q: For `CN(C(=O)Oc1ccc(NC(=O)c2ccc(-n3ccnc3)cc2)cn1)c1ccccc1` [Example 57, Methyl-phenyl-carbamic acid 5-(4-imidazol-1-yl-benzoylamino)-pyridin-2-yl ester], which activity at 10 µM is on record?
A: 17%

Q: How did the activity at 10 µM turn out when `CCN(CC)c1ccc(C(=O)Nc2ccc(OC(=O)N(C)c3ccccc3)nc2)cc1` [Example 58, Methyl-phenyl-carbamic acid 5-(4-diethylamino-benzoylamino)-pyridin-2-yl ester] was run?
A: 11%

Q: For `CC1CCN(C(=S)Nc2ccc(OC(=O)N(C)c3ccccc3)nc2)CC1` [Example 63, Methyl-phenyl-carbamic acid 5-[(4-methyl-piperidine-1-carbothioyl)-amino]-pyridin-2-yl ester], which activity at 10 µM is on record?
A: 2%

Q: For `CN(C(=O)Oc1ccc(N2C(=O)CC(C)(C)CC2=O)cn1)c1ccc(Br)cc1` [Example 65, (4-Bromo-phenyl)-methyl-carbamic acid 4,4-dimethyl-2,6-dioxo-3,4,5,6-tetrahydro-2H-[1,3′]bipyridinyl-6′-yl ester], which activity at 10 µM is on record?
A: 0%

Q: `COc1ccc(N(C)C(=O)Oc2ccc(N3C(=O)CC(C)(C)CC3=O)cn2)cc1` [Example 72, (4-Methoxy-phenyl)-methyl-carbamic acid 4,4-dimethyl-2,6-dioxo-3,4,5,6-tetrahydro-2H-[1,3′]bipyridinyl-6′-yl ester] was tested. Which activity at 10 µM did it give?
A: 2%

Q: How did the activity at 10 µM turn out when `CN(C(=O)Oc1ccc(N2C(=O)CC(C)(C)CC2=O)cn1)c1ccc(CCO)cc1` [Example 77, [4-(2-Hydroxy-ethyl)-phenyl]-methyl-carbamic acid 4,4-dimethyl-2,6-dioxo-3,4,5,6-tetrahydro-2H-[1,3′]bipyridinyl-6′-yl ester] was run?
A: 12%
